Test results reported in patent US20040076999A1, “Computer user interface facilitating acquiring and analyzing of biological specimen traits” (Baylor College of Medicine, priority 2002, published 2004).

Legend:
[1] = test system: Drosophila; settings: feeding Drosophila; cited from earlier work
[2] = test system: flies; settings: administered orally to flies; cited from earlier work
[3] = test system: wild-type flies; assay: Motion tracking with wild-type flies; format: in vivo, Drosophila; settings: flies fed 0.1M or 0.05M LiCl, compared to controls; FIG. 32
Protocol: (§1) Each movie is first scored individually to give one value per score and movie. A single movie is therefore considered to be the experimental base unit. Thereafter average values and standard errors for all scores are calculated from the movie score values for all repeats for a vial. Those averages and standard errors are the values shown in the PhenoScreen program. The data that is used in the scoring process are the trajectories of the corresponding movie. Each trajectory consists of a list of x- and y-coordinates of the position of the fly (and also size), with one list entry for every frame from when it starts moving in one frame until it stops in another.
Speed: The Speed score is calculated in the same way as the X-Speed score, but instead of only using the length of the x-component of the speed vector, the length of the whole vector is used. That is, [length]=square root of ([x-length]^2+[y-length]^2).
Turning: The Turning score is calculated in the same way as the Speed score, but instead of using the length of the speed vector, the absolute angle between the current speed vector and the previous one is used, giving a value between […].
Stumbling: The Stumbling score is calculated in the same way as the Speed score, but instead of using the length of the speed vector, the absolute angle between the current speed vector and the direction of body orientation is used, giving a value between 0 and 90 degrees.
Several sets of wild-type flies were assayed under various conditions to test the motion tracking software. Lithium Chloride (LiCl), a treatment for bipolar affective disorder in humans, is also known to induce behavioral changes in Drosophila (Xia et al., 1997). […] The results of this assay are shown in the bar graph of FIG. 32.

[4] = test system: Drosophila expressing a mutant form of human Huntington (HD); assay: Motion tracking with Drosophila model of Huntington disease; format: in vivo; settings: HD flies with drug versus wt flies
Protocol: as §1
Cross150: The Cross150 score is the number of trajectories that either crossed the line at x=150 in the negative x-direction (from bottom to top of the vial) during the movie, or that were already above that line at the start of the movie. […] In other words this score measures the number of detected flies that either managed to hold on to the tube or that managed to climb above the x=150 line within the length of the movie.
Drosophila expressing a mutant form of human Huntington (HD) have a functional deficit that is quantifiable, reproducible, and is suitable for automated high-throughput screening. Drosophila (or specimen) movements can be analyzed for various characteristics and/or traits. […]

**Q.** What does the source list for 4-phenylbutyrate [PBA]?
**A.** lifespan [1]: significantly increase; locomotor vigor [1]: without diminution

**Q.** Which “mean recovery times following seizure” value [2] does the source give for `NCC1(CC(=O)O)CCCCC1` [Gabapentin] here?
**A.** reduce

**Q.** What about the seizure [2] of the same compound?
**A.** reduce

**Q.** Which results are given for `[Cl-].[Li+]` [LiCl, Lithium Chloride]?
**A.** incidence of stumbling [3]: increase incidence; incidence of turning [3]: increase incidence; speed [3]: significant reduction

**Q.** Which “mean recovery times following seizure” value [2] does the source give for `O=C1NC(=O)C(c2ccccc2)(c2ccccc2)N1` [Phenyloin] here?
**A.** reduce

**Q.** And the seizure [2]?
**A.** reduce

**Q.** Which climbing ability [4] does the source give for `CC(/C=C/C(=O)NO)=C\[C@@H](C)C(=O)c1ccc(N(C)C)cc1` [TSA] here?
**A.** restore climbing ability for HD flies to almost the same level as for wt flies

**Q.** And the “speed restored to wt level” value [4]?
**A.** the same is not true for speed

**Q.** For `CC1(C)O[C@@H]2[C@@H](CO[C@@]3(COS(N)(=O)=O)OC(C)(C)O[C@@H]23)O1` [Topiramate], which “mean recovery times following seizure” value [2] is on record?
**A.** reduce

**Q.** What about the seizure [2] of the same compound?
**A.** reduce
